# Like-named read-outs stand apart in the source and are kept apart here.
# What was measured:
# Test in all cases: MIC, broth micro dilution assay (NCCLS)
# Assay type in all cases: cell-based
# [1] = tested on: Enterococcus faecalis A20688
# [2] = tested on: Streptococcus pneumoniae A28272
# [3] = tested on: Staphylococcus aureus A15090
# [4] = Mueller-Hinton medium, 35° C., 18 hours
# [5] = 50% Mueller-Hinton medium and 50% Todd Hewitt medium, 35° C., 18 hours
SMILES,"MIC (μg/mL) against Enterococcus faecalis A20688 [1, 4]","MIC (μg/mL) against Streptococcus pneumoniae A28272 [2, 5]","MIC (μg/mL) against Staphylococcus aureus A15090 [3, 4]",MIC (μg/mL) against Enterococcus faecalis A20688 [1],MIC (μg/mL) against Streptococcus pneumoniae A28272 [2],MIC (μg/mL) against Staphylococcus aureus A15090 [3],other results
COC(C)=C1NC(=O)C(C(C)O)NC(=O)c2csc(n2)-c2cc(O)c(-c3nc(C(=O)NC(CN(C)CCCNc4ccncc4)C(N)=O)cs3)nc2-c2csc(n2)C2COC(=O)c3c4c5c(cccc5n3O)COC(=O)C(OC3CC(C)(O)C(N(C)C)C(C)O3)C(OC4)C(NC(=O)c3csc1n3)c1nc(cs1)C(=O)N2 (stereo not drawn) [Example 83],0.5 µg/mL,0.25 µg/mL,1.0 µg/mL,,,,
CO/C(C)=C1/NC(=O)C(C(C)O)NC(=O)c2csc(n2)-c2cc(O)c(-c3nc(C(=O)NC(CNCCOCCOCCO)C(N)=O)cs3)nc2-c2csc(n2)C2COC(=O)c3c4c5c(cccc5n3O)COC(=O)C(O[C@H]3C[C@](C)(O)[C@H](N(C)C)[C@H](C)O3)C(OC4)C(NC(=O)c3csc1n3)c1nc(cs1)C(=O)N2 (stereo partly drawn) [Example 55],,,,0.5 µg/mL,0.06 µg/mL,0.25 µg/mL,
CO/C(C)=C1/NC(=O)C(C(C)O)NC(=O)c2csc(n2)-c2cc(O)c(-c3nc(C(=O)NC(CN4CCN(CC(=O)O)CC4)C(N)=O)cs3)nc2-c2csc(n2)C2COC(=O)c3c4c5c(cccc5n3O)COC(=O)C(O[C@H]3C[C@](C)(O)[C@H](N(C)C)[C@H](C)O3)C(OC4)C(NC(=O)c3csc1n3)c1nc(cs1)C(=O)N2 (stereo partly drawn) [Example 39],1.0 µg/mL,0.03 µg/mL,1.0 µg/mL,,,,
COC(C)=C1NC(=O)C(C(C)O)NC(=O)c2csc(n2)-c2cc(O)c(-c3nc(C(=O)NC(CN4CCCC4COc4cccnc4)C(N)=O)cs3)nc2-c2csc(n2)C2COC(=O)c3c4c5c(cccc5n3O)COC(=O)C(OC3CC(C)(O)C(N(C)C)C(C)O3)C(OC4)C(NC(=O)c3csc1n3)c1nc(cs1)C(=O)N2 (stereo not drawn) [Example 79],,,,0.125 µg/mL,0.001 µg/mL,0.06 µg/mL,
COC(C)=C1NC(=O)C(C(C)O)NC(=O)c2csc(n2)-c2cc(O)c(-c3nc(C(=O)NC(CN(C)CCc4ccccn4)C(N)=O)cs3)nc2-c2csc(n2)C2COC(=O)c3c4c5c(cccc5n3O)COC(=O)C(O)C(OC4)C(NC(=O)c3csc1n3)c1nc(cs1)C(=O)N2 (stereo not drawn) [Example 93],0.06 µg/mL,0.001 µg/mL,0.06 µg/mL,,,,
COC(C)=C1NC(=O)C(C(C)O)NC(=O)c2csc(n2)-c2cc(O)c(-c3nc(C(=O)NC(CNC(CO)Cc4c[nH]cn4)C(N)=O)cs3)nc2-c2csc(n2)C2COC(=O)c3c4c5c(cccc5n3O)COC(=O)C(OC3CC(C)(O)C(N(C)C)C(C)O3)C(OC4)C(NC(=O)c3csc1n3)c1nc(cs1)C(=O)N2 (stereo not drawn) [Example 67],8.0 µg/mL,1.0 µg/mL,2.0 µg/mL,,,,
CO/C(C)=C1/NC(=O)C(C(C)O)NC(=O)c2csc(n2)-c2cc(O)c(-c3nc(C(=O)NC(CNCc4cc(OC)c(OC)c(OC)c4)C(N)=O)cs3)nc2-c2csc(n2)C2COC(=O)c3c4c5c(cccc5n3O)COC(=O)C(O[C@H]3C[C@](C)(O)[C@H](N(C)C)[C@H](C)O3)C(OC4)C(NC(=O)c3csc1n3)c1nc(cs1)C(=O)N2 (stereo partly drawn) [Example 70],,,,4.0 µg/mL,0.06 µg/mL,0.25 µg/mL,
CO/C(C)=C1/NC(=O)C(C(C)O)NC(=O)c2csc(n2)-c2cc(O)c(-c3nc(C(=O)NC(CSCC(=O)O)C(N)=O)cs3)nc2-c2csc(n2)C2COC(=O)c3c4c5c(cccc5n3O)COC(=O)C(O[C@H]3C[C@](C)(O)[C@H](N(C)C)[C@H](C)O3)C(OC4)C(NC(=O)c3csc1n3)c1nc(cs1)C(=O)N2 (stereo partly drawn) [Example 4],,,,,,,"MIC ([1]; Enterococcus faecalis, A20688, 18 h, read-out: MIC (μg/mL) against Enterococcus faecalis A20688): 2 µg/mL; MIC ([2]; Streptococcus pneumoniae, A28272, 18 h, read-out: MIC (μg/mL) against Streptococcus pneumoniae A28272): 0.125 µg/mL; MIC ([3]; Staphylococcus aureus, A15090, 18 h, read-out: MIC (μg/mL) against Staphylococcus aureus A15090): 2 µg/mL"
CO/C(C)=C1/NC(=O)C(C(C)O)NC(=O)c2csc(n2)-c2cc(O)c(-c3nc(C(=O)NC(CN4CCN(CCN5CCOCC5)CC4)C(N)=O)cs3)nc2-c2csc(n2)C2COC(=O)c3c4c5c(cccc5n3O)COC(=O)C(O[C@H]3C[C@](C)(O)[C@H](N(C)C)[C@H](C)O3)C(OC4)C(NC(=O)c3csc1n3)c1nc(cs1)C(=O)N2 (stereo partly drawn) [Example 53],,,,1.0 µg/mL,0.5 µg/mL,0.5 µg/mL,
COC(C)=C1NC(=O)C(C(C)O)NC(=O)c2csc(n2)-c2cc(O)c(-c3nc(C(=O)NC(CSCC4NC(=O)NC4=O)C(N)=O)cs3)nc2-c2csc(n2)C2COC(=O)c3c4c5c(cccc5n3O)COC(=O)C(OC3CC(C)(O)C(N(C)C)C(C)O3)C(OC4)C(NC(=O)c3csc1n3)c1nc(cs1)C(=O)N2 (stereo not drawn) [Example 45],128 µg/mL,0.03 µg/mL,4.0 µg/mL,,,,
CO/C(C)=C1/NC(=O)C(C(C)O)NC(=O)c2csc(n2)-c2cc(O)c(-c3nc(C(=O)NC(CN[C@@H](C)c4ccccc4)C(N)=O)cs3)nc2-c2csc(n2)C2COC(=O)c3c4c5c(cccc5n3O)COC(=O)C(O[C@H]3C[C@](C)(O)[C@H](N(C)C)[C@H](C)O3)C(OC4)C(NC(=O)c3csc1n3)c1nc(cs1)C(=O)N2 (stereo partly drawn) [Example 61],0.25 µg/mL,0.03 µg/mL,0.25 µg/mL,,,,
CNCCNCC(NC(=O)c1csc(-c2nc3c(cc2O)-c2nc(cs2)C(=O)NC(C(C)O)C(=O)N/C(=C(\C)OC)c2nc(cs2)C(=O)NC2c4nc(cs4)C(=O)NC(COC(=O)c4c5c6c(cccc6n4O)COC(=O)C(O[C@H]4C[C@](C)(O)[C@H](N(C)C)[C@H](C)O4)C2OC5)c2nc-3cs2)n1)C(N)=O (stereo partly drawn) [Example 28],,,,0.5 µg/mL,0.03 µg/mL,0.25 µg/mL,
CO/C(C)=C1/NC(=O)C(C(C)O)NC(=O)c2csc(n2)-c2cc(O)c(-c3nc(C(=O)NC(CSCCS(=O)(=O)O)C(N)=O)cs3)nc2-c2csc(n2)C2COC(=O)c3c4c5c(cccc5n3O)COC(=O)C(O[C@H]3C[C@](C)(O)[C@H](N(C)C)[C@H](C)O3)C(OC4)C(NC(=O)c3csc1n3)c1nc(cs1)C(=O)N2 (stereo partly drawn) [Example 46],128 µg/mL,0.06 µg/mL,4.0 µg/mL,,,,
CO/C(C)=C1/NC(=O)C(C(C)O)NC(=O)c2csc(n2)-c2cc(O)c(-c3nc(C(=O)NC(CN4CCN(c5ncccn5)CC4)C(N)=O)cs3)nc2-c2csc(n2)C2COC(=O)c3c4c5c(cccc5n3O)COC(=O)C(O[C@H]3C[C@](C)(O)[C@H](N(C)C)[C@H](C)O3)C(OC4)C(NC(=O)c3csc1n3)c1nc(cs1)C(=O)N2 (stereo partly drawn) [Example 22],,,,1.0 µg/mL,0.0005 µg/mL,0.5 µg/mL,
CNC(=O)On1c2c3c4c(cccc41)COC(=O)C(OC1CC(C)(O)C(N(C)C)C(C)O1)C(OC3)C1NC(=O)c3csc(n3)C(=C(C)OC)NC(=O)C(C(C)O)NC(=O)c3csc(n3)-c3cc(O)c(-c4nc(C(=O)NC(CN(C)C(=O)NC)C(N)=O)cs4)nc3-c3csc(n3)C(COC2=O)NC(=O)c2csc1n2 (stereo not drawn) [Example 108],0.5 µg/mL,0.03 µg/mL,0.125 µg/mL,,,,

# Reference: patent US20020065219A1, “Water soluble thiazolyl peptide derivatives” (priority 2000, published 2002)
